# Measured values from patent publication US5114925A, “Renin inhibitors containing the 2-[[(2R,3S)-3-amino-4-cyclohexyl-2-hydroxy-1-butyl]thio)alkanoyl moiety and the corresponding sulfoxide and sulfone derivatives” (Merck & Co., Inc., priority 1991, dated 1992).
# Target: T1, human renin (Homo sapiens, UniProt P00797)
# T1 construct: added to human plasma (75 μl) containing EDTA; from tissue; host or cells: human plasma
# T1 sequence (P00797 67-406): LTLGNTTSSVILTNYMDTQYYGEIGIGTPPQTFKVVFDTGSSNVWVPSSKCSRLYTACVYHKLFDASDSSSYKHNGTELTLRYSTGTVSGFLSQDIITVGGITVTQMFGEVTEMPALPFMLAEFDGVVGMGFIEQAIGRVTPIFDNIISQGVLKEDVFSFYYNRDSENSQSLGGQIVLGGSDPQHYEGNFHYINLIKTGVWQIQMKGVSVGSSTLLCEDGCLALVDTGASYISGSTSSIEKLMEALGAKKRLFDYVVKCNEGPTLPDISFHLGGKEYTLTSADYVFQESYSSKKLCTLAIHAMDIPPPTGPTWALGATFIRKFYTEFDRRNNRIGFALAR
# Assay: plasma renin assay (radioimmunoassay of angiotensin-I released in human plasma)
# Type: biochemical
# Settings: human renin and human renin substrate in human plasma, 37° C., pH 6.9, angiotensin-I by radioimmunoassay; read-out: IC50 (the molar concentration required to cause 50% inhibition), renin inhibitory activity
# Experimental: It is based on the measurement, by radiommunoassay, of Angiotensin-I released from human renin substrate by human renin in human plasma. The inhibitor is dissolved in 0.01N HCl (10 μl) and added to human plasma (75 μl) containing EDTA, and angiotensin-I antibody ([…]) in 3M-Tris.HCl buffer (pH 6.9).
# Free and bound ligand are separated by the addition of dextran-coated charcoal, and the amount of bound radio-ligand determined in a gamma counter.
row,Compound,IC50
1,"CC(C)(C)S(=O)(=O)C[C@@H](Cc1ccccc1)C(=O)N[C@@H](Cc1c[nH]cn1)C(=O)N[C@@H](CC1CCCCC1)[C@@H](O)CS(=O)(=O)CC(=O)NCCN1CCOCC1 [4-[2-[2-[[(2R,3S)3-[N^α -[(S)-2-[(t-Butylsulfonyl)-methyl]-3-phenylpropionyl]-L-histidylamino]-4-cyclohexyl-2-hydroxy-1-butyl]sulfonyl]-acetamido]ethyl]morpholine]",7.2 nM
2,CC(C)(C)OC(=O)N[C@@H](Cc1ccccc1)C(=O)N[C@@H](Cc1c[nH]cn1)C(=O)N[C@@H](CC1CCCCC1)[C@@H](O)CSCC(=O)NCc1ccncc1 [4-[[2-[X-thio]acetamido]methyl]pyridine],92 nM
3,CC(C)CC(C(=O)NCCN1CCOCC1)S(=O)(=O)C[C@H](O)[C@H](CC1CCCCC1)NC(=O)[C@H](Cc1c[nH]cn1)NC(=O)[C@H](Cc1ccccc1)NC(=O)OC(C)(C)C (stereo partly shown) [4-[2-[[2 ---- RS )-2 [X-sulfonyl]-4-methyl-pentanoyl]amino]ethyl]morpholine],77 nM
4,CC(C)(C)OC(=O)N[C@@H](Cc1ccccc1)C(=O)N[C@@H](Cc1c[nH]cn1)C(=O)N[C@@H](CC1CCCCC1)[C@@H](O)CS(=O)(=O)CC(=O)NC1C[N+]2([O-])CCC1CC2 (stereo partly shown) [3-[2-[X-sulfonyl]acetamido]quinuclidine-N-oxide],4.2 nM
5,CC(C)CC(C(=O)NCCN1CCOCC1)[S+]([O-])C[C@H](O)[C@H](CC1CCCCC1)NC(=O)[C@H](Cc1cnc[nH]1)NC(=O)[C@H](Cc1ccccc1)NC(=O)OC(C)(C)C (stereo partly shown) [4-[2-[[(2 ---- RS )-2-[X-sulfinyl]-4-methyl-pentanoyl]amino]ethyl]morpholine],88 nM
6,CC(C)(C)OC(=O)N[C@@H](Cc1ccccc1)C(=O)N[C@@H](Cc1c[nH]cn1)C(=O)N[C@@H](CC1CCCCC1)[C@@H](O)CS(=O)(=O)CC(=O)NC1CCN(Cc2ccccc2)CC1 [1-benzyl-4-[2-[X-sulfonyl]acetamido]piperidine],34 nM
7,CC(C)(C)OC(=O)N[C@@H](Cc1ccccc1)C(=O)N[C@@H](Cc1cnc[nH]1)C(=O)N[C@@H](CC1CCCCC1)[C@@H](O)CS(=O)(=O)CC(=O)NCCN1CCOCC1,9.4 nM
8,"CC(C)CC(SC[C@H](O)[C@H](CC1CCCCC1)NC(=O)[C@H](Cc1c[nH]cn1)NC(=O)[C@H](Cc1ccccc1)NC(=O)OC(C)(C)C)C(=O)NCCN1CCOCC1 (mixture of isomers) [4-[2-[[(2RS)-2-[[(2R,3S)-3-(Boc-L-phenylalanyl-L-histidylamino)-4-cyclohexyl-2-hydroxy-1-butyl]thio]methylpentanoyl]-4-methylpentanoyl]amino]ethyl]morpholine]",73 nM

# Further lines, results first:
row,IC50,Compound
1,29 nM,CC(C)(C)OC(=O)NC(Cc1ccccc1)C(=O)NC(Cc1cnc[nH]1)C(=O)NC(CC1CCCCC1)C(O)CSCC(=O)NC1CN2CCC1CC2 (stereo not shown) [3-[2-[X-thio]acetamido}quinuclidine]
2,19 nM,"CC(C)(C)OC(=O)N[C@@H](Cc1ccccc1)C(=O)N[C@@H](Cc1cnc[nH]1)C(=O)N[C@@H](CC1CCCCC1)[C@@H](O)C[S+]([O-])CC(=O)NCCN1CCOCC1 (stereo partly drawn) [4-[[(2R,3S)-3-(Boc-L-phenylalanyl-L-histidylamino)-4-cyclohexyl-2-hydroxy-1-butyl]-sulfinyl]acetyl]amino]ethyl]morpholine]"
3,161 nM,"CNCCN(C)C(=O)CSC[C@H](O)[C@H](CC1CCCCC1)NC(=O)[C@H](Cc1c[nH]cn1)NC(=O)[C@H](Cc1ccccc1)NC(=O)OC(C)(C)C [N-[2-[[(2R,3S)-3-(Boc-L-phenylalanyl-L-histidylamino)-4-cyclohexyl-2-hydroxy-1-butyl]thio]acetyl]-N,N'-dimethylethylenediamine]"
4,904 nM,"CC(C)(C)OC(=O)N[C@@H](Cc1ccccc1)C(=O)N[C@@H](Cc1c[nH]cn1)C(=O)N[C@@H](CC1CCCCC1)[C@@H](O)CSCC(=O)O [2-[X-thio]acetic acid, 2-[[(2R,3S)-3-(Boc-L-phenylalanyl-L-histidylamino)-4-cyclohexyl-2-hydroxy-1-butyl]thio]acetic acid]"
5,29 nM,"CN1CCN(C(=O)CSC[C@H](O)[C@H](CC2CCCCC2)NC(=O)[C@H](Cc2cnc[nH]2)NC(=O)[C@H](Cc2ccccc2)NC(=O)OC(C)(C)C)CC1 [4-[2-[X-thio]acetyl]-1-methylpiperazine, 4-[2-[[(2R,3S)-3-(Boc-L-phenylalanyl-L-histidylamino)-4-cyclohexyl-2-hydroxy-1-butyl]thio]acetyl]-1-methylpiperazine]"
6,58 nM,"CCOC(=O)CSC[C@H](O)[C@H](CC1CCCCC1)NC(=O)[C@H](Cc1cnc[nH]1)NC(=O)[C@H](Cc1ccccc1)NC(=O)OC(C)(C)C [ethyl 2-[X-thio]acetate, ethyl 2-[[(2R,3S) 3-(Boc-L-phenylalanyl-L-histidylamino)-4-cyclohexyl-2-hydroxy-1-butyl]thio]acetate]"
7,40 nM,CC(C)(C)OC(=O)N[C@@H](Cc1ccccc1)C(=O)N[C@@H](Cc1cnc[nH]1)C(=O)N[C@@H](CC1CCCCC1)[C@@H](O)CSCC(=O)NCCN1CCOCC1 [4-[2-[2-[X-thio]acetamido]ethyl]morpholine]
8,20 nM,CN1CCN(C(=O)CS(=O)(=O)C[C@H](O)[C@H](CC2CCCCC2)NC(=O)[C@H](Cc2cnc[nH]2)NC(=O)[C@H](Cc2ccccc2)NC(=O)OC(C)(C)C)CC1 [4-[2-[X-sulfonyl]acetyl]-1-methylpiperazine]
